From patent US9662377B2, “Therapeutic composition for treatment of glioblastoma” (REGENTS OF THE UNIVERSITY OF MINNESOTA, priority 2010, dated 2017)

Test system: PBMCs from CMV sera-positive donors
Assay: CMV assay (pp65-dependent IFNγ production)
Type: cell-based, human
Protocol: 5×10^5 HLA-A2^+ iDCs were pulsed with 100 μg of tumor lysates derived in 5% or 20% O2+/−10 μg of pp65 HLA-A2-restricted CMV antigen (NLVPMVATV) (SEQ ID NO: 15) and matured as described in the methods section. Following maturation, DCs were washed 3 times, and 5×10^5 PBMCs from CMV sera-positive donors were added to DCs. CMV sera-negative PBMCs were used as a negative control. Cells were incubated for 48 h, and supernatant was analyzed by cytometric bead array (BD Biosciences) for IFNγ. Cells were cultured for an additional 24 h, stained with anti-CD8, pp65 pentamer (ProImmune), and intracellularly stained for IFNγ production.
The inventors established an assay to determine if TLs altered DC-mediated CD8 T cell priming from a defined antigen not present in the TLs. To accomplish this, TLs were mixed with pp65 peptide, a specific marker antigen with well-defined CD8 T cell responses. […] Soluble IFNγ in the tissue culture supernatant was quantified as a measure of CD8 T cell activation. There was a background of […] of IFNγ detected in the supernatant when TLs were pulsed in the absence of pp65, possibly due to activation of T cells or natural killer (NK) cells irrespective of pp65 (FIG. 8B).

In the case of NLVPMVATV [pp65], the “Response of sera-negative donor PBMCs” value (CMV sera-negative donor PBMCs) is reported as “did not respond” and the “IFNγ level above background” value (sera-positive donor PBMCs primed with pp65 alone (no TLs)) is reported as 2-4 fold.
